According to publication PMC9986545, “A novel oral formulation of the melanocortin-1 receptor agonist PL8177 resolves inflammation in preclinical studies of inflammatory bowel disease and is gut restricted in rats, dogs, and humans” (Frontiers in Immunology, 2023):

What was measured:
[1] = system: male Wistar rats with DSS-induced colitis; test: DSS-induced colitis model in rats; type: in vivo
Protocol: . Groups of 6 male Wistar rats weighing 200 ± 20 g were used. All animals, except those in the sham group, received 5% DSS in the drinking water for 3 days, from day 1 to day 3, which was then changed to normal drinking water for the following 5 days in the study. The rats in the sham group were given drinking water only. […]. Mesalazine, which is approved for the treatment of IBD, including ulcerative colitis and Crohn’s disease, was administered orally as a positive control (300 mg/kg once daily) starting on day 4 through day 7 for a total of 4 consecutive days ( Figure 1 ). Colitis was assessed by disease activity index (diarrhea and rectal bleeding) during the study and by colon length shortening, colon weight gain, and colon histopathologic assessment after organ harvesting on day 8. At termination on day 8, 24 hours after the last dose, colon tissues were harvested, rinsed, photographed, weighed, and their lengths measured, and then cut into 2 halves 7 cm from the anus. One half of the harvested colon tissue was snap-frozen with liquid nitrogen for cytokine measurement (interferon [IFN]-γ, IL-1β, IL-6, and TNF-α). The other half of the colon tissue was further cut into 3 parts 2.5, 5, and 7 cm from the anus, fixed in 10% formalin, and kept in 70% ethanol for histopathology. The colon length and colon-to-body weight ratio was calculated for each animal according to the formula: colon weight (g)/body weight (g) × 100%. Colon tissues from rats (n=6 per treatment group) were drop-fixed in 4% paraformaldehyde embedded in paraffin, and sectioned at 4 µm. For histologic scoring, colon sections were stained with hematoxylin and eosin. For immunohistochemistry, colon sections were processed for antigen retrieval and immunostained with primary antibody: keratin 18 (K18) (1:400, Bioss, bs-5405R) and with a rabbit-specific biotin-conjugated secondary antibody from HistoWiz (HistoWiz, Inc. Brooklyn, NY). Representative images were taken at 10x magnification and quantification was performed using HistoWiz AI technology counting positive cells versus all nuclei, specifically in the crypts. All analyses were performed by blinded individuals.
Histologic criteria for the analysis of colitis included abnormalities of mucosal architecture, extent of inflammation, erosion or ulceration, epithelial regeneration, and the percentage involvement of the disease process. The scoring was based on the findings of independent observers by examining 3 colon sections from each animal. Scoring was from 0 = none to 4 = severe for each item, except for percentage involvement of disease process, which scored from 1 (1%–25%) to 4 (76%–100%). Total scores for colitis (total colitis index) were added, resulting in a combined histologic score range from 0 to 60 ( Table S1 ).
Descriptive statistics were used for assessment of colon damage scores (diarrhea, rectal bleeding, and colon weight gain) (DNBS and DSS rat studies) and for the distribution of PL8177 and main metabolite in the GI tract (Sprague-Dawley rat and dog studies). Mean ± SEM were determined, and 1-way analysis of variance followed by Dunnett’s test was applied for comparison between the vehicle and treated groups. Significance was set at the P<0.05 level.
Table S1.Scoring Table for Calculating Total Colitis Index Score in DSS Colitis –Induced Rats
Abnormalities of mucosal None (Norm al) 0
Minimal for focal, not exceeding laminar propria 1
Mild abnormality, cystic dilation/aberrant crypts 2
Moderate or multifocal abnormalities 3
Severe, entire crypt and epithelium lost 4
Extent of inflammation None 0
Minimal for focal, scatter ed calls (<10 %) 1
Moderate, inflammatory cells extending into the submucosa 3
Severe, transmural leukocytic infiltrate from mucosa to serosa 4
Erosion or ulceration No erosion, ulceration, or granulation tissue 0
Minimal or focal, not exceeding lamina propri a 1
Severe ulceration or granulation tissue 4
Epithelial regression Complete regeneration or normal tissue 0 […]

mice with colitis = system: mice with colitis; parameters: method as in PMID 9145424; settings: twice-daily α-MSH exposure; cited from earlier work
[2] = Mesalazine 300 mg/kg QD oral, days 4-7, day 8, n=6

Compound | % Decrease in Colon Weight vs Vehicle Control ([1]; Mesalazine 300 mg/kg QD oral, days 4-7, day 8) | Mean Colon Length (SEM) [1, 2] | Mean Colon Weight (SEM) [1, 2] | Mean Colon Weight/100 g Body Weight (SEM) [1, 2] | Net Increase (SEM) of colon weight/100 g body weight [1, 2] | Mean Body Weight (SEM) (Day 8) ([1]; Mesalazine 300 mg/kg QD oral, days 4-7, n=6) | Number of K18 positive cells in colon crypts (immunohistochemistry) vs vehicle ([1]; PL8177 (100 µg) or mesalazine, day 8) | Total colitis score (total colitis index), mean [SD] ([1]; mesalazine 300 mg/kg QD oral, histology day 8, n=6, range 0-60) | Reduction in fecal blood (mice with colitis)
Nc1ccc(O)c(C(=O)O)c1 [Mesalazine] | 35% | 18.6 (0.5) cm | 0.570 (0.031) g | 0.235 (0.012) | 0.073 (0.012) | 242.5 (3.0) g | increased number of K18 positive cells, similar to sham | 28.5 [7.71] | 
α-MSH |  |  |  |  |  |  |  |  | 80%
